Measurements from publication PMC7393058, “Design, Synthesis, Molecular Modeling Study and Biological Evaluation of New N'-Arylidene-pyrido [2,3-d]pyrimidine-5-carbohydrazide Derivatives as Anti-HIV-1 Agents” (Iranian Journal of Pharmaceutical Research : IJPR, 2019).
Where two headings read alike, the source gives them in different places.

What was measured:
[1] = system: single cycle replicable HIV NL4-3; test: single-round replication assay, inhibition of p24 expression (capture ELISA) in Hela cells; format: cell-based, HIV-1; settings: for SI=CC50/EC50: selectivity index, CC50/EC50 ratio
Experimental: (§1) The evaluation of inhibitory effect of synthesized compounds was performed by single-round replication assay which was evaluated in our laboratory and reported previously ([34]-[40]). Briefly, Hela cells (6 × 10^3 per well of 96-wells plate) were incubated with single cycle replicable HIV NL4-3 virions (200 ng p24) in the presence of various concentrations of compounds which were added concurrently with viral infection. The supernatants were collected 72 h postinfection and evaluated for p24 antigen load by capture ELISA (Biomerieux, France). Percentage inhibition of p24 expression in the treated culture was calculated as inhibition rate of p24 (%). The 50% effective concentration (EC50) was determined for each compound. XTT proliferation method was performed to evaluate the cellular toxicity of compounds. Toxicities of the compounds against the cells were quantified using XTT (sodium 3-[1 (phenyl aminocarbonyl)-3,4-tetrazolium]-bis(4-methoxy-6-nitro)benzene sulfonic acid) reagent, according to the kit instruction (Roche, Germany) ([41], [42]). Concentration which reduces proliferation of 50% of cells (CC50) was calculated subsequent to determination of p24 load. For EC50 and CC50 determinations, the compounds were tested at six concentrations ([…]) in triplicates.
(§2) All new synthesized compounds were evaluated for their activity against single cycle replicable HIV NL4-3 by determining their ability to inhibit p24 expression in Hela cell cultures. The well-known nucleoside RT inhibitor (AZT) was assayed in the same cells for comparative purpose. They all were then subjected to cell based XTT colorimetric assay for cytotoxicity to ensure that the anti-HIV-1 activity of the compounds was not a result of their cytotoxic effects ([43], [44]). The biological results are expressed as EC50, CC50, and SI (selectivity index, given by the CC50/EC50 ratio). […] When comparing the anti-HIV-1 activity of tested compounds, it appeared that the presence of substituents on benzylidene fragment confers better inhibition than the unsubstituted counterparts (compound 5a, EC50 >[…]).

Hela cells = test: XTT proliferation (cytotoxicity) assay; format: cell-based, human
Experimental: as §1, §2

[2] = XTT proliferation (cytotoxicity) assay; format: cell-based, human; settings: human; XTT, Hela cells
Experimental: as §1, §2

[3] = Human immunodeficiency virus 1, NL43, HeLa, 72 h

Row | SMILES | melting point | EC50 ([1]; inhibition of p24 expression, Hela cells, 72 h postinfection, triplicates, read-out: EC50) | CC50 (Hela cells) | EC50 [1, 3] | SI=CC50/EC50 [1] | CC50 at 72 h [2]
1 | Cc1ccccc1C=NNC(=O)c1cc(=O)[nH]c2c1c(=O)n(C)c(=O)n2C | 277 °C (dec.) |  |  |  |  | 
2 | Cn1c(=O)c2c(C(=O)NN=Cc3ccc(F)cc3)cc(=O)[nH]c2n(C)c1=O | 220.7 to 221.3 °C |  |  |  |  | 
3 | Cc1cn([C@H]2C[C@H](N=[N+]=[N-])[C@@H](CO)O2)c(=O)[nH]c1=O [AZT, reference compound] |  | 0.018 µM | > 200 µM |  |  | 
4 | Cn1c(=O)c2c(C(=O)NN=Cc3ccccc3)cc(=O)[nH]c2n(C)c1=O [Compound 5a, N’-benzylidene-1,3-dimethyl-2,4,7-trioxo-1,2,3,4,7,8-hexahydropyrido[2,3-d]pyrimidine-5-carbohydrazide] | 286 °C (dec.) |  |  | > 200 µM | 1.2 | > 200 µM
5 | COc1ccccc1C=NNC(=O)c1cc(=O)[nH]c2c1c(=O)n(C)c(=O)n2C [Compound 5b, N’-(2-methoxybenzylidene)-1,3-dimethyl-2,4,7-trioxo-1,2,3,4,7,8-hexahydropyrido[2,3-d]pyrimidine-5-carbohydrazide] | 231 °C (dec.) |  |  | 120 µM | 3.75 | > 200 µM
6 | COc1cccc(C=NNC(=O)c2cc(=O)[nH]c3c2c(=O)n(C)c(=O)n3C)c1 [Compound 5c, N’-(3-methoxybenzylidene)-1,3-dimethyl-2,4,7-trioxo-1,2,3,4,7,8-hexahydropyrido[2,3-d]pyrimidine-5-carbohydrazide] | 231 °C (dec.) |  |  | 180 µM | 1.1 | > 200 µM
7 | COc1ccc(C=NNC(=O)c2cc(=O)[nH]c3c2c(=O)n(C)c(=O)n3C)cc1 [Compound 5d, N’-(4-methoxybenzylidene)-1,3-dimethyl-2,4,7-trioxo-1,2,3,4,7,8-hexahydropyrido[2,3-d]pyrimidine-5-carbohydrazide] | 231 °C (dec.) |  |  | 140 µM | 1.3 | 185 µM
8 | Cn1c(=O)c2c(C(=O)NN=Cc3ccccc3Cl)cc(=O)[nH]c2n(C)c1=O [Compound 5e, N’-(2-chlorobenzylidene)-1,3-dimethyl-2,4,7-trioxo-1,2,3,4,7,8-hexahydropyrido[2,3-d]pyrimidine-5-carbohydrazide] | 297 °C (dec.) |  |  | 155 µM | 2.4 | > 200 µM
9 | Cn1c(=O)c2c(C(=O)NN=Cc3cccc(Cl)c3)cc(=O)[nH]c2n(C)c1=O [Compound 5f, N’-(3-chlorobenzylidene)-1,3-dimethyl-2,4,7-trioxo-1,2,3,4,7,8-hexahydropyrido[2,3-d]pyrimidine-5-carbohydrazide] | 302 °C (dec.) |  |  | 120 µM | 3.75 | > 200 µM
10 | Cn1c(=O)c2c(C(=O)NN=Cc3ccc(Cl)cc3)cc(=O)[nH]c2n(C)c1=O [Compound 5g, N’-(4-chlorobenzylidene)-1,3-dimethyl-2,4,7-trioxo-1,2,3,4,7,8-hexahydropyrido[2,3-d]pyrimidine-5-carbohydrazide] | 305 °C (dec.) |  |  | 110 µM | 4.5 | > 200 µM
11 | Cc1cccc(C=NNC(=O)c2cc(=O)[nH]c3c2c(=O)n(C)c(=O)n3C)c1 [Compound 5i, 1,3-Dimethyl-N’-(3-methylbenzylidene)-2,4,7-trioxo-1,2,3,4,7,8-hexahydropyrido[2,3-d]pyrimidine-5-carbohydrazide] | 280 °C (dec.) |  |  | 125 µM | 4.8 | > 200 µM
12 | Cc1ccc(C=NNC(=O)c2cc(=O)[nH]c3c2c(=O)n(C)c(=O)n3C)cc1 [Compound 5j, 1,3-Dimethyl-N’-(4-methylbenzylidene)-2,4,7-trioxo-1,2,3,4,7,8-hexahydropyrido[2,3-d]pyrimidine-5-carbohydrazide] | 284 °C (dec.) |  |  | 90 µM |  | > 200 µM
13 | Cn1c(=O)c2c(C(=O)NN=Cc3cccc(F)c3)cc(=O)[nH]c2n(C)c1=O [Compound 5k, N’-(3-fluorobenzylidene)-1,3-dimethyl-2,4,7-trioxo-1,2,3,4,7,8-hexahydropyrido[2,3-d]pyrimidine-5-carbohydrazide] | 287 °C (dec.) |  |  | 140 µM | 2.7 | > 200 µM
